IC50, EC50 and SUVmax data for eight molecules are collected here from ChEMBL document CHEMBL6078624, “Structure-based discovery of a 4,5-Dihydropyrazole-cored PET ligand for imaging of receptor-interacting serine/threonine-protein kinase 1 (RIPK1) in the brain” (Eur J Med Chem, 2024).

Data set [1] relates to L929. Briefly: Anti-necroptotic activity against TNF induced mouse L929 cells assessed as cell viability incubated for 24 hrs by Cell Titer-Glo luminescent cell viability assay. The format is functional, cell-based. The conditions noted are these: L929, 24 h. (Cellular ATP, detected with luciferase, serves as a proxy for viable cell number.)
In data set [2] the test system is HT-29. Briefly: Anti-necroptotic activity against TNF induced human HT-29 cells assessed as cell viability incubated for 48 hrs by Cell Titer-Glo luminescent cell viability assay. It is filed as functional, cell-based. As to conditions: HT-29, 48 h.
A short description of data set [3]: Inhibition of TSZ-induced necroptosis in human HT-29 cells by CellTiter-Glo luminescent cell viability assay.
Data set [4] can be described thus: Drug uptake in macaque brain measured at 5 mins by micro-PET imaging analysis. The format is ADME, tissue-based. The conditions noted are these: macaca, in vivo.

As to `Cc1ncc(-c2ccc3nc(N[11C](C)=O)sc3c2)cc1NC(=O)CC1CCCCC1`, the results for the half-maximal inhibitory concentration (IC50) in data set [1] and in data set [2] were 13 nM and 23 nM, respectively.
With `O=C(c1cccc(F)n1)N1CCC(C(=O)N2N=CCC2c2cc(F)cc(F)c2)CC1` (centres undefined), the EC50 (commonly the midpoint of the concentration-response curve) in data set [3] came out at 100 nM.
The same measure, in the same setting: the same measure for `Cc1ccc(C2CC=NN2C(=O)C2CCN(C(=O)c3cccc(F)n3)CC2)cc1F` (centres undefined): 19.9 nM.
With `CC(C)(C)C(=O)N1N=CC[C@H]1c1cccc([11CH3])c1`, the SUVmax in data set [4] is listed as ~ 3.7.
`O=C(c1ccccn1)N1CCC(C(=O)N2N=CCC2c2cc(F)cc(F)c2)CC1` (centres undefined) displayed an EC50 in data set [3] of 47.7 nM.
The same measure, in the same setting: the same measure for `O=C(c1ccccn1)N1CCC(C(=O)N2N=CCC2c2cccc(F)c2)CC1` (centres undefined): 68.2 nM; for `O=C(c1cccc(F)n1)N1CCC(C(=O)N2N=CCC2c2cccc(F)c2)CC1` (centres undefined): 98.3 nM.
Same read-out and setting: for `O=C(c1cccc(F)n1)N1CCC(C(=O)N2N=CCC2c2ccccc2)CC1` (centres undefined) the value was 242 nM.
